Test results: patent US20200255807A1, “IN VITRO PROPAGATION OF PRIMARY CANCER CELLS” (University of Cape Town, priority 2017, published 2020)

System: primary breast cancer cells
Assay: Isolation of primary breast cancer cells from biopsy samples by digestion with collagenase II plus an additional enzyme (cell yield and viability)
Format: cell-based, human
Settings: for Mean fold increase in cell number (collagenase II = 1): additional enzyme used in conjunction with 5 μg/ml collagenase II, 45 min at 37° C., compared to collagenase II alone
Experimental: A fresh primary breast cancer tumour biopsy sample (10-200 mg of tissue) was placed in 5 ml Hanks Balanced Salts (HBSS; Lonza, Germany; pH=7.5) on ice and it was transported immediately to the laboratory. The biopsy sample was weighed and then cut into 1 mm by 1 mm pieces using a scalpel in a BSL2 cabinet. The cut pieces were placed in 1 ml HBSS containing 5 μg/ml collagenase II (Ambion, USA) with or without 5 U/ml hyaluronidase, dispase II or papain (10 mg/ml) and the tissue was digested by incubation at 37° C. with rotation for 45 min. After the incubation time, a […] cell strainer (Becton Dickinson, USA) was placed into a 50 ml tube. The undigested material was pipetted up and down 10 times and then placed onto the cell strainer. The cell strainer was washed with 10 ml of HBSS and the cells were pelleted at 500×g for 5 min. The pelleted cells were then washed with an additional 10 ml of HBSS.
The pelleted cells were re-suspended in DMEM/F12 containing 10% human A/B serum (Western Province Blood Transfusion Services), 100 IU penicillin/streptomycin (Lonza, Germany), 0.1 mM sodium pyruvate (Lonza, Germany), […] (Sigma, Germany), […] (Sigma, Germany), 5 mM ethanolamine (Sigma, Germany), 5 μg/ml selenium (Sigma, Germany) and 10 nM estradiol (Sigma, Germany). The cells were then plated into a multi well plate or dish, which was dependent on the cell number. The breast cancer cells were incubated at 37° C. for 2 days and the medium was replaced with fresh medium without 10 nM estradiol, but with 100 nM cortisol (Sigma, Germany). The medium was replaced every 2 days with fresh medium containing half the concentration of cortisol used on the previous day. When the cells were confluent they were split using a standard procedure (trypsin) into a larger culture vessel.

Molecule	Mean fold increase in cell number (collagenase II = 1) (breast biopsy samples)	Mean fold increase in cell number (collagenase II = 1) (breast biopsy samples, listed as hyaluronidase) [fold]	Mean cell viability (additional enzyme used in conjunction with collagenase II for cell isolation, breast biopsy samples (Table 1)) [%]	mean viability of the cells (enzyme used in conjunction with collagenase II, breast biopsy samples) [%]	Mean fold increase in cell number (collagenase II = 1) (breast biopsy samples, listed as papain) [fold]
Hyaluronidase	2.7 (SD = 1.2-4.5) fold	2.7	69	69	
Papain: protease enzyme (10 mg/ml) added with collagenase II to the isolation buffer for digesting tumour biopsy tissue (protein, UniProt P00784 134-345, looked up) Papain: IPEYVDWRQKGAVTPVKNQGSCGSCWAFSAVVTIEGIIKIRTGNLNEYSEQELLDCDRRSYGCNGGYPWSALQLVAQYGIHYRNTYPYEGVQRYCRSREKGPYAAKTDGVRQVQPYNEGALLYSIANQPVSVVLEAAGKDFQLYRGGIFVGPCGNKVDHAVAAVGYGPNYILIKNSWGTGWGENGYIRIKRGTGNSYGVCGLYTSSFYPVKN	0.7 (SD = 0.4-0.9) fold				0.7
